Earlier results in publication PMC3719006, “Safety, tolerability, pharmacokinetics, and pharmacodynamics of a long-acting release (LAR) formulation of pasireotide (SOM230) in patients with gastroenteropancreatic neuroendocrine tumors: results from a randomized, multicenter, open-label, phase I study” (Cancer Chemotherapy and Pharmacology, 2013).

Columns and labels:
sst2 receptor = system: sst2 receptor
Description: (§1) Somatostatin inhibits hormone release and cell growth through binding to specific, cell surface, G-protein–coupled receptors, of which five distinct subtypes (sst1–5) have been characterized. In pancreatic and gastrointestinal endocrine tumors, sst2 expression predominates, although multiple other subtypes have also been found. […] Development of the somatostatin an ...

sst5 receptor = system: sst5 receptor
Description: as §1

[1] = SC formulation
[2] = system: somatostatin receptor subtypes (sst1–3,5); design: method as in PMID 17977644; conditions: four of the five somatostatin receptor subtypes
[3] = native somatostatin
Method: Somatostatin inhibits hormone release and cell growth through binding to specific, cell surface, G-protein–coupled receptors, of which five distinct subtypes (sst1–5) have been characterized. In pancreatic and gastrointestinal endocrine tumors, sst2 expression predominates, although multiple other subtypes have also been found. The limited clinical use of native somatostatin, because of its very short half-life (<3 min) and the impact of rebound hypersecretion, has necessitated the development of more clinically useful analogs. Development of the somatostatin an ...

Substance: octreotide
- binding affinity (sst2 receptor): binds with high affinity
- binding affinity (sst5 receptor): lower binding affinity

Substance: pasireotide
- PK exposure difference between patients with GEP NET and healthy volunteers [1]: twofold
- binding affinity [2]: binds with high affinity

Substance: somatostatin: native hormone that inhibits hormone release and cell growth via sst1–5
- half-life [3]: < 3 min
